# According to ChEMBL document CHEMBL1154551, “Microbial transformation of benzosampangine” (2000):
# Legend:
# Format in all cases: functional
# Candida albicans = assay: Antimicrobial activity against Candida albicans
# Aspergillus fumigatus = assay: Antimicrobial activity against Aspergillus fumigatus
# Cryptococcus neoformans = assay: Antimicrobial activity against Cryptococcus neoformans
MIC (Candida albicans) [µg/mL],MIC (Aspergillus fumigatus) [µg/mL],MIC (Cryptococcus neoformans) [µg/mL],Structure (SMILES)
0.39,0.39,1.56,O=C1c2ccccc2-c2nccc3c2c1nc1ccccc13 [BENZOSAMPANGINE]
–,–,0.39,C[C@@H]1[C@H](O)[C@@H](C)/C=C/C=C/C=C/C=C/C=C/C=C/C=C/[C@H](O[C@@H]2O[C@H](C)[C@@H](O)[C@H](N)[C@@H]2O)C[C@@H]2O[C@](O)(C[C@@H](O)C[C@@H](O)[C@H](O)CC[C@@H](O)C[C@@H](O)CC(=O)O[C@H]1C)C[C@H](O)[C@H]2C(=O)O [AMPHOTERICIN B]
